Three molecules from patent US12320799B2, “Methods of measuring signaling pathway activity for selection of therapeutic agents” (Celcuity Inc., priority 2017, dated 2025) can be followed below.

Type in all cases: cell-based, human
For one test, the system named is ALK signaling pathway. The experiment in a line: CELx multiple pathway test, impedance biosensor cell adhesion, FAM150A/Ceritinib pair. Particulars: activator FAM150A. The text has this: (§1) Biosensor and transducer: A 96-well impendence E-Plate (ACEA, San Diego, CA) was placed onto an xCELLigence RTCA MP Station impendence biosensor (ACEA, San Diego, CA). The biosensor measured simultaneously the impedance of every well. The change in impedance for a particular well is proportional to the number of cells and type of attachment the cells have with the impedance microplate. Changes in impedance indicate a response to perturbation of these small cell populations. Coatings: The 96-E-Plate were wells were coated with fibronectin and or collagen. Collagen is purchased from Advanced BioMatrix (Carlsbad, CA) and fibronectin from Sigma-Aldrich (St. Louis, MO). Tissue and cell samples: A total of 18 samples of human tumor cells from breast, lung, colon, ovarian, kidney, bladder cancer were studied. For each of these six different cancer types, tumor cell samples from three different patients were tested. Any biomarkers that are used to guide selection of targeted therapy are listed in Table 18 for each patient if they were present. Signaling Pathways activator agent and targeted therapeutic pairs: Eleven different signaling pathways were studied in each human tumor cell sample using […] signaling pathway activator agent and targeted therapeutic pairs. Each of the signaling pathway activator agent and targeted therapeutic pairs affect the same signaling pathway. Each of the signaling pathway activator agents is a well-characterized and specific agonist of its associated signaling pathway and each of the targeted therapeutic agents is a well-characterized and specific antagonist of the same associated signaling pathway. The signaling pathway activator agents and targeted therapeutics used to characterize the activity level of the associated signaling pathway are summarized in Table 16 below:
(§2) Other Reagents: Standard media antibiotics (e.g. penicillin, streptomycin) and other buffers were purchased and used as delivered from ATCC (Manassas, VA, USA) or Life Technologies (Grand Island, NY). Procedure: For each test of a patient cell sample with a pair of signaling pathway activator and targeted therapeutic agents, six wells were seeded with approximately 15,000 cells in 120 uL culture media. Twenty microliters of the targeted therapeutic agent were added to two wells of each patient's cells and 20 microliters of standard media were added to the other four wells for each patient 18 hours in advance of addition of the signaling pathway activator agent. Signaling pathway stimulation was initiated with the addition of 20 ul of the signaling pathway activator agent in the two wells that received a targeted therapeutic agent and in two additional wells for each patient's set of cells without the targeted therapeutic. The impedance recording of attachment and adhesion change was performed at 37° C., 5% C02. Data was recorded on a continuous basis throughout the test, where the data presented is from the initial baseline level of cell attachment compared to the subsequent effects following the targeted therapeutic agent and the signaling pathway activator agent additions on the 18 different patient samples.
(§3) For each of the 18 patient samples, up to 11 different signaling pathways were tested. The output value represents the difference between the amount of cell adhesion change resulting from addition of the signaling pathway activator agent and the amount of cell adhesion change resulting from addition of the targeted therapeutic agent.

The test system of a further test is Axl signaling pathway. The experiment in a line: CELx multiple pathway test, impedance biosensor cell adhesion, Gas6/R428 (BGB324) pair. To be noted: activator Gas6.
Description: as §1, §2, §3

Test [1] concerns HER2/HER1 signaling pathway. Briefly: CELx multiple pathway test, impedance biosensor cell adhesion, EGF/Pertuzumab pair. To be noted: activator EGF.
Description: as §1
as §2, with “samples. Results:” for “samples.”
(§4) Table 17 presents the results, expressed as an output value, for each of the 167 tests performed using the methods described above. For each of the 18 patient samples, up to 11 different signaling pathways were tested. The output value represents the difference between the amount of cell adhesion change resulting from addition of the signaling pathway activator agent and the amount of cell adhesion change resulting from addition of the targeted therapeutic agent.

For test [2], the system named is HER2/HER3 signaling pathway. Briefly: CELx multiple pathway test, impedance biosensor cell adhesion, NRG1/Pertuzumab pair. Particulars: activator NRG1.
Description: as §1, §2, §3

The next test concerns HER2 signaling pathway. The experiment in a line: CELx multiple pathway test, impedance biosensor cell adhesion, Pertuzumab. Particulars: no activator listed.
Description: as §1
as §2, with “samples. Results:” for “samples.”
as §4

For `Cc1cc(Nc2ncc(Cl)c(Nc3ccccc3S(=O)(=O)C(C)C)n2)c(OC(C)C)cc1C1CCNCC1` [Ceritinib], the output value was 5 in the test with ALK signaling pathway (C2 breast tumor cells); 10 in the test on ALK signaling pathway (C21 breast tumor cells); 16 with ALK signaling pathway (C23 lung tumor cells); 2 in the test with ALK signaling pathway (C24 lung tumor cells); 8 with ALK signaling pathway (C25 lung tumor cells); 15 in the test on ALK signaling pathway (C34 breast tumor cells). Further, the output value in the test on ALK signaling pathway (C54 ovarian tumor cells) turned out to be 14; in the test with ALK signaling pathway (C69 ovarian tumor cells), 16; in the test on ALK signaling pathway (C77 ovarian tumor cells), 37.

Consider `Nc1nc(Nc2ccc3c(c2)CC[C@@H](N2CCCC2)CC3)nn1-c1cc2c(nn1)-c1ccccc1CCC2` [R428 (BGB324)], for which the output value in the test with Axl signaling pathway (C2 breast tumor cells) amounted to 5; in the test on Axl signaling pathway (C21 breast tumor cells), 6; in the test with Axl signaling pathway (C23 lung tumor cells), 24; with Axl signaling pathway (C24 lung tumor cells), 7; in the test on Axl signaling pathway (C25 lung tumor cells), 30; in the test on Axl signaling pathway (C34 breast tumor cells) it was 44. Moreover, the output value is 12 in the test with Axl signaling pathway (C54 ovarian tumor cells), 10 in the test on Axl signaling pathway (C69 ovarian tumor cells) and 5 in the test on Axl signaling pathway (C77 ovarian tumor cells).

Take Pertuzumab: the output value is recorded as 28 in test [1] (C2 breast tumor cells); 40 in test [1] (C21 breast tumor cells); −6 in test [1] (C23 lung tumor cells); 54 in test [1] (C24 lung tumor cells); 38 in test [1] (C25 lung tumor cells); −176 in test [1] (C34 breast tumor cells). The output value in test [1] (C54 ovarian tumor cells) is recorded as 180; in test [1] (C62 colorectal tumor cells), 0; in test [1] (C69 ovarian tumor cells), −115; in test [1] (C71 colorectal tumor cells) it was −10; in test [1] (C72 colorectal tumor cells) it was 0; in test [1] (C77 ovarian tumor cells), 67. In addition, the output value is given as 1 in test [1] (C81 bladder tumor cells); 1 in test [1] (C82 bladder tumor cells); 46 in test [1] (C87 bladder tumor cells); −24 in test [1] (C88 kidney tumor cells); 35 in test [1] (C90 kidney tumor cells); 3 in test [1] (C92 kidney tumor cells). Moreover, the output value is reported as 426 in test [2] (C2 breast tumor cells); −48 in test [2] (C21 breast tumor cells); 61 in test [2] (C23 lung tumor cells); 13 in test [2] (C24 lung tumor cells); 9 in test [2] (C25 lung tumor cells); 356 in test [2] (C54 ovarian tumor cells). In addition, the output value in test [2] (C62 colorectal tumor cells) came out at 24; in test [2] (C71 colorectal tumor cells) it was 175; in test [2] (C72 colorectal tumor cells), 21; in test [2] (C77 ovarian tumor cells), 294; in test [2] (C81 bladder tumor cells) it was 4; in test [2] (C82 bladder tumor cells), 5. Moreover, the output value is reported as 477 in test [2] (C87 bladder tumor cells); 46 in test [2] (C88 kidney tumor cells); −3 in test [2] (C90 kidney tumor cells); −20 in test [2] (C92 kidney tumor cells); 454 in the test with HER2 signaling pathway (C2 breast tumor cells); −9 in the test on HER2 signaling pathway (C21 breast tumor cells). Further, the output value in the test on HER2 signaling pathway (C23 lung tumor cells) is reported as −55; in the test on HER2 signaling pathway (C24 lung tumor cells), 66; in the test on HER2 signaling pathway (C25 lung tumor cells), 47; in the test with HER2 signaling pathway (C34 breast tumor cells), −90; in the test on HER2 signaling pathway (C54 ovarian tumor cells), 537; in the test on HER2 signaling pathway (C62 colorectal tumor cells), 24. The output value with HER2 signaling pathway (C69 ovarian tumor cells) is recorded as −20; with HER2 signaling pathway (C71 colorectal tumor cells) it was 165; in the test on HER2 signaling pathway (C72 colorectal tumor cells), 21; with HER2 signaling pathway (C77 ovarian tumor cells), 361; in the test on HER2 signaling pathway (C81 bladder tumor cells), 5; with HER2 signaling pathway (C82 bladder tumor cells), 6. Moreover, the output value stood at 523 in the test on HER2 signaling pathway (C87 bladder tumor cells), 16 with HER2 signaling pathway (C88 kidney tumor cells), 32 in the test on HER2 signaling pathway (C90 kidney tumor cells) and 23 in the test on HER2 signaling pathway (C92 kidney tumor cells).
